Marks after values point to notes of the source that are not given here. Blank lines part the entries; values can stand above or below the molecule they belong to.
Assays:
[1] = tested on: autoxidation of lipids (brain tissue of male mice); assay: Inhibition of autoxidation of lipids in mouse brain homogenate (chemiluminescence); assay type: biochemical, mice (NMRI); details: chemiluminescence over 60 minutes, vs solvent control
From the text: The autoxidation of lipids is associated with the emission of light. The determination of this extraordinarily weak chemiluminescence can be used for both quantifying peroxides and evaluating the efficacy of antioxidants. Brain tissue of male mice (NMRI; 20-30 g; Centre d'Elevage Janvier, Le Genest-Saint Isle, France) served as lipid-rich tissue in the present investigations. After its extraction the brain was washed with ice-cold phosphate-buffered physiological saline solution (PBS, pH 7.4) and freed from meninges and residual blood. The tissue samples were homogenised with 4 times their volume (v/w) made up of PBS and centrifugated at 1000×g and 4° C. for 10 minutes. The supernatants were immediately diluted with the same buffer to 3 times their volume and stored on ice. 250 μl of the diluted supernatant was transferred into a test tube and incubated for 10 minutes at 37° C. in a 6-channel luminometer (Multi-Biolumat LB 9505 C, Berthold, Bad Wildbad). After adding 25 μl of compound II in PBS added with 2.5% DMSO the incubation was continued for further 10 minutes. Then the intensity of the chemiluminescence (CL) was determined over a period of 60 minutes. The percentage of the inhibition of the autoxidation was calculated in comparison to the solvent control (PBS added with 2.5% DMSO) measured simultaneously. […]

IL-1β = assay: Synthesis of IL-1β in LPS-stimulated activated murine peritoneal macrophages; assay type: cell-based, mouse; details: for IL-1β: LPS 1 μg/ml, 24 h, average of three parallel tests; for IL-1β Effect (%): percentage change vs solvent control
Experimental: (§1) The influence of compound II on the synthesis of the proinflammatory cytokines IL-1β, TNF-α and IL-6 was determined by using activated murine peritoneal macrophages. In order to recover the activated macrophages 3×10^9 killed coryn bacterium parvum bacteria (Changzhou Yanshen Co. Ltd., Changzhou, China) in 0.5 ml PBS were injected intraperitoneally into male NMRI mice (Centre d'Elevage Janvier, Le Genest-Saint Isle, France). 6 days later the abdominal cavity was rinsed with 2.5 ml Hanks' balanced saline solution (HBSS) free of calcium and magnesium added with 10 U/ml heparine. The cells were resuspended at a concentration of 2×10^6 cells/ml in complete RPMI medium supplemented with 10% fetal bovine serum. […] cell suspension were filled into the wells of 96-well microtiter plates, respectively. After an incubation period of 2 h non-adherent cells were removed and the remaining cell lawn was washed twice with culture medium (37° C.). The macrophages were preincubated for 30 min. with compound II and then the synthesis of proinflammatory cytokines was induced by adding 1 μg/ml lipopolysaccharide of E. coli (serotype 0127:B8, Sigma, Deisenhofen). After incubating for 24 h (37° C., 5% CO2 in air) the cells were lysed by freezing and thawing for three times, the cell supernatants were recovered and frozen at −80° C. until analysed. The determination of the cytokine concentration in the cell supernatant was effected by means of commercial test kits (Duosets IL-1β, TNF-α and IL-6, R&D, Wiesbaden) in correspondence with the manufacturer's instructions. All investigations were conducted three times. The influence of compound II on the synthesis of the cytokines was evaluated in comparison to solvent controls (0.1% DMSO in complete RPMI medium) that were tested simultaneously.

TNF-α = assay: Synthesis of TNF-α in LPS-stimulated activated murine peritoneal macrophages; assay type: cell-based, mouse; details: for TNF-α: LPS 1 μg/ml, 24 h, average of three parallel tests; for TNF-α Effect (%): percentage change vs solvent control
Experimental: as §1

IL-6 = assay: Synthesis of IL-6 in LPS-stimulated activated murine peritoneal macrophages; assay type: cell-based, mouse; details: for IL-6 pg/ml: LPS 1 μg/ml, 24 h, average of three parallel tests; for IL-6 Effect (%): percentage change vs solvent control
Experimental: as §1

lipoxygenase (LO) = target: T1, lipoxygenase (LO) (Homo sapiens, UniProt P09917); assay: Lipoxygenase activity in human whole blood (cystenyl-LT after A23187); assay type: cell-based; details: for Cystenyl-LT: A23187 50 μM; for Cystenyl-LT Effect (%): percentage change vs solvent control
T1 construct: endogenous in cells; host or cells: heparinised human whole blood (leukocytes), stimulated with A23187
T1 sequence (P09917 1-674): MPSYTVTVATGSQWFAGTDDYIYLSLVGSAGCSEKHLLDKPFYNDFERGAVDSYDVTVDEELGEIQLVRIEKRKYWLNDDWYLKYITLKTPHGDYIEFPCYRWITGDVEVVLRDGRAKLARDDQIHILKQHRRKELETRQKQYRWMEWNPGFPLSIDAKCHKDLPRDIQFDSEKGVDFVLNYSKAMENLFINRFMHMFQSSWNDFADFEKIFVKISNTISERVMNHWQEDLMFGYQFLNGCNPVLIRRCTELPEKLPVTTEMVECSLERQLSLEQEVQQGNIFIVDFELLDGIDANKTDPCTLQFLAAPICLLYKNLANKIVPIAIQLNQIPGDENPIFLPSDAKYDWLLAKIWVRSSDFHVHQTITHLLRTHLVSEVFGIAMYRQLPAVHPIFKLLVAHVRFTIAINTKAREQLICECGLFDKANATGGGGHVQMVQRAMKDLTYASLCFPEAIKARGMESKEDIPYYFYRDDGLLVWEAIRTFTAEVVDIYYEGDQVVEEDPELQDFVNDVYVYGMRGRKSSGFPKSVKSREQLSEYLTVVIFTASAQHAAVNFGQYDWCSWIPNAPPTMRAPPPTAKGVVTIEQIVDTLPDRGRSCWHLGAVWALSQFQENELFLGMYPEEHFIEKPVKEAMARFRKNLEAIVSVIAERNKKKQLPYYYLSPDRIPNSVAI
Experimental: (§2) Heparinised human whole blood was used for the investigations. 100 μl of whole blood were added into each well of 96-well microtiter plates. Separated plates were used for the determination of the cyclooxygenase-1 (COX1) and lipoxygenase (LO) activiy as well as for the induction of cyclooxygenase-2 (COX2).
(§3) Compound II was diluted in DME medium (DMEM) with 1% of antibiotics/antimycotics solution and 2 mM L-glutamine (Sigma, Deisenhofen) using DMSO (final concentration 0.1%) as solubility promoter. After adding 50 μl of compound II the tests were incubated for 60 min. at 37° C. Subsequently, 50 μl of calciumionophor A23187 (final concentration 50 μM) were added to stimulate the eicosanoid synthesis. After incubating for further 30 min. at 37° C. the microtiter plates were centrifuged for 5 min. at 4° C. with 1500 g. The plasma was pipetted off and frozen at −80° C. until analysed.
(§4) In the plasma samples TXB2, PGE2 and cystenyl leukotrienes (cystenyl-LT) were determined as parameters for the COX1, COX2 and LO activity. For the analysis commercial EIA test kits (TXB2 and PGE2: Caymann/IBL, Hamburg; cystenyl leukotrienes: CAST-2000, Milenia, Bad Nauheim) were used in accordance with the manufacturers' instructions. […] This spectrum of efficacy is to be regarded as extremely advantageous because in the therapeutic use of compound II the side effects typical of COX1 inhibitors, such as gastrointestinal complications (erosions, ulcerations) or hemorrhages due to the inhibition of the thrombocyte aggregation need therefore not to be taken into consideration.

cyclooxygenase-1 (COX1) = target: T2, cyclooxygenase-1 (COX1) (Homo sapiens, UniProt P23219); assay: Cyclooxygenase-1 activity in human whole blood (TXB2 after A23187); assay type: cell-based; details: for TXB2: A23187 50 μM; for TXB2 Effect (%): percentage change vs solvent control
T2 construct: endogenous in cells; host or cells: heparinised human whole blood (platelets), stimulated with A23187
Experimental: as §2, §3, §4

cyclooxygenase-2 (COX2) = target: T3, cyclooxygenase-2 (COX2) (Homo sapiens, UniProt P35354); assay: Cyclooxygenase-2 activity in human whole blood (PGE2 after aspirin pretreatment and LPS); assay type: cell-based; details: for PGE2: aspirin pretreated, LPS 10 μg/ml, 18 h; for PGE2 Effect (%): percentage change vs solvent control
T3 construct: to induce the expression of COX2 25 μl of lipopolysaccharide of E. coli; endogenous in cells; host or cells: heparinised human whole blood, aspirin-pretreated, COX2 induced with LPS
T3 sequence (P35354 18-604): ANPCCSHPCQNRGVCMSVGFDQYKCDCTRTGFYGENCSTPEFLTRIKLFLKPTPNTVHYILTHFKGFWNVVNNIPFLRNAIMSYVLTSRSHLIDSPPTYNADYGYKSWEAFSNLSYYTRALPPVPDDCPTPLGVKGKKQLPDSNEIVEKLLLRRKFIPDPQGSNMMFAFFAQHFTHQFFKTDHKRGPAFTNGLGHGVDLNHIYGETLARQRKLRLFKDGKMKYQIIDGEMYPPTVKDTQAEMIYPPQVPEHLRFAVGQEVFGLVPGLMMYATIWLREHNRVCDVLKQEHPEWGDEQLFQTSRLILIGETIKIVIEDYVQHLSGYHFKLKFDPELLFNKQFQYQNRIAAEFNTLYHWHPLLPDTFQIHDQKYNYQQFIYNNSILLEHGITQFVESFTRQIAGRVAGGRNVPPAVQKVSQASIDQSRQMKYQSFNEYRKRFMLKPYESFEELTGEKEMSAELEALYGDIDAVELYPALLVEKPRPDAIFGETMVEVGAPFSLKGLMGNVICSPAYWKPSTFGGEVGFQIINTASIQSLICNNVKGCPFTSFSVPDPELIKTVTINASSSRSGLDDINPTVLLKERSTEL
Experimental: as §2
Then compound II and the solvent (DMEM with 0.1% DMSO), respectively, were added in a volume of 25 μl. Moreover, to induce the expression of COX2 25 μl of lipopolysaccharide of E. coli (serotype 0127:B8, final concentration 10 μg/ml) were added. After incubating for 18 h at 37° C. the plasma was recovered as described above and also stored at −80° C. until analysed.
as §4

[2] = 10 μg/ml (first line so printed, r17-18), human whole blood
[3] = 10 μg/ml (first line so printed, r17-18)
[4] = 10 μg/ml (second line so printed, r19-20), human whole blood
[5] = 10 μg/ml (second line so printed, r19-20)
[6] = 30 μg/ml, human whole blood, average of two parallel tests
[7] = 100 μg/ml, human whole blood, average of two parallel tests

T2 sequence (P23219 24-599): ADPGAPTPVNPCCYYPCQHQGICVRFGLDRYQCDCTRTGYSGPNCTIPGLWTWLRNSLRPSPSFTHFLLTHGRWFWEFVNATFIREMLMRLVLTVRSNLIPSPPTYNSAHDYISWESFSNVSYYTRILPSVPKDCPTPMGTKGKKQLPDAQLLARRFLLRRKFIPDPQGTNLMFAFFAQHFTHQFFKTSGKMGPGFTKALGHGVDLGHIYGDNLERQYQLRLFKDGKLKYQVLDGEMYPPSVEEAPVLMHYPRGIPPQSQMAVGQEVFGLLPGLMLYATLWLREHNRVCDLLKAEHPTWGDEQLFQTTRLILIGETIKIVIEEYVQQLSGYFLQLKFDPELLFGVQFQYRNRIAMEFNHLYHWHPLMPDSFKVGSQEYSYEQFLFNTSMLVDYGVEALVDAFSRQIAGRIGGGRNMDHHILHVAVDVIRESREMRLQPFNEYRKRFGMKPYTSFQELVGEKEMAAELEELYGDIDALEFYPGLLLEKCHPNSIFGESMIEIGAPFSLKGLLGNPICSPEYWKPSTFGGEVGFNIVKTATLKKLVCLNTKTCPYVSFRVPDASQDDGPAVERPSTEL

Cystenyl-LT (lipoxygenase (LO); [2]): 3557 pg/mL
Cystenyl-LT Effect (%) (lipoxygenase (LO); [3]): −51%
Cystenyl-LT (lipoxygenase (LO); [4]): 5193 pg/mL
Cystenyl-LT Effect (%) (lipoxygenase (LO); [5]): −28%
Cystenyl-LT (lipoxygenase (LO); [6]): 2089 pg/mL
Cystenyl-LT Effect (%) (lipoxygenase (LO); 30 μg/ml): −71%
Cystenyl-LT (lipoxygenase (LO); [7]): 661 pg/mL
Cystenyl-LT Effect (%) (lipoxygenase (LO); 100 μg/ml): −91%
inhibition of the activity of LO (in words) (lipoxygenase (LO); human whole blood): potent inhibition
TXB2 (cyclooxygenase-1 (COX1); [2]): 7825 pg/mL
TXB2 Effect (%) (cyclooxygenase-1 (COX1); [3]): −20%
TXB2 (cyclooxygenase-1 (COX1); [4]): 7278 pg/mL
TXB2 Effect (%) (cyclooxygenase-1 (COX1); [5]): −26%
TXB2 (cyclooxygenase-1 (COX1); [6]): 9993 pg/mL
TXB2 Effect (%) (cyclooxygenase-1 (COX1); 30 μg/ml): +2%
TXB2 (cyclooxygenase-1 (COX1); [7]): 9115 pg/mL
TXB2 Effect (%) (cyclooxygenase-1 (COX1); 100 μg/ml): −7%
effect on the activity of COX1 (in words) (cyclooxygenase-1 (COX1); human whole blood): hardly affected
PGE2 (cyclooxygenase-2 (COX2); [2]): 3679 pg/mL
PGE2 Effect (%) (cyclooxygenase-2 (COX2); [3]): −66%
PGE2 (cyclooxygenase-2 (COX2); [4]): 5499 pg/mL
PGE2 Effect (%) (cyclooxygenase-2 (COX2); [5]): −49%
PGE2 (cyclooxygenase-2 (COX2); [6]): 2626 pg/mL
PGE2 Effect (%) (cyclooxygenase-2 (COX2); 30 μg/ml): −76%
PGE2 (cyclooxygenase-2 (COX2); [7]): 2232 pg/mL
PGE2 Effect (%) (cyclooxygenase-2 (COX2); 100 μg/ml): −79%
inhibition of the activity of COX2 (in words) (cyclooxygenase-2 (COX2); human whole blood): potent inhibition
Structure (SMILES): O=c1ccc2cc(O)c(O)c(O)c2o1 [Compound II, 6,7,8-Trihydroxy-2H-1-benzopyran-2-one]
half-maximal inhibitory concentration, autoxidation of lipids [1]: 53 ng/mL
IL-1β (IL-1β; 10 μg/ml): 3789 pg/mL
IL-1β Effect (%) (IL-1β; 10 μg/ml): +7%
IL-1β (IL-1β; 30 μg/ml): 3356 pg/mL
IL-1β Effect (%) (IL-1β; 30 μg/ml): −6%
inhibition of the synthesis of IL-1β (in words) (IL-1β; 100 μg/ml): significant inhibition
IL-1β (IL-1β; 100 μg/ml): 430 pg/mL
IL-1β Effect (%) (IL-1β; 100 μg/ml): −88* %
TNF-α (TNF-α; 10 μg/ml): 10050 pg/mL
TNF-α Effect (%) (TNF-α; 10 μg/ml): +19%
TNF-α (TNF-α; 30 μg/ml): 10189 pg/mL
TNF-α Effect (%) (TNF-α; 30 μg/ml): +21%
inhibition of the synthesis of TNF-α (in words) (TNF-α; 100 μg/ml): significant inhibition
TNF-α (TNF-α; 100 μg/ml): 6251 pg/mL
TNF-α Effect (%) (TNF-α; 100 μg/ml): −26* %
IL-6 pg/ml (IL-6; 10 μg/ml): 23078 pg/mL
IL-6 Effect (%) (IL-6; 10 μg/ml): −27* %
IL-6 pg/ml (IL-6; 30 μg/ml): 22519 pg/mL
IL-6 Effect (%) (IL-6; 30 μg/ml): −28* %
inhibition of the synthesis of IL-6 (in words) (IL-6; 100 μg/ml): significant inhibition
IL-6 pg/ml (IL-6; 100 μg/ml): 976 pg/mL
IL-6 Effect (%) (IL-6; 100 μg/ml): −97* %

Structure (SMILES): Cc1c(C)c2c(c(C)c1O)CCC(C)(C(=O)O)O2 (centres unmarked) [Trolox, reference compound]
half-maximal inhibitory concentration, autoxidation of lipids [1]: 1665 ng/mL

From patent publication US20080020068A1, “Use Of Trisubstituted Benzopyranones” (Dr.Willmar Schwabe GmbH & Co. KG, priority 2004, published 2008)
